Test results reported in patent publication US6642003B2, “Human glucose-dependent insulin-secreting cell line” (Cedars-Sinai Medical Center, priority 2001, dated 2003).

Tests used:
PANC-1/IDX-1 cells [1] = test: RT-PCR of islet β-cell specific transcripts, PANC-1/IDX-1 cells; format: cell-based, human
Protocol: (§1) PANC-1 cells were transfected with a pcDNA3 construct (Invitrogen; Carlsbad, Calif.) harboring the wild-type full-length IDX-1 cDNA using LipoTAXI (Catalog N. 204110; Mammalian Transfection Kit, Stratagene; La Jolla, Calif.). Control cells were transfected with the vector alone. The selection of positive (i.e. transfected) cells was carried out by culturing the cells in the presence of 400 μg/ml of G418 sulfate (GN-04, Omega; Tarzana, Calif.).
After the treatment of ARIP and PANC-1 cells with GLP-1, Exendin-9, or vehicle, for the described length of time and the various doses, the culture medium was removed and the cells were washed (twice) with serum-free medium. Total RNA was isolated using the TRiazol-method (Gibco-BRL), and treated with DNase (Amplification Grade, GibcoBRL) in 20 mmol/l Tris-HCL (pH 8.4), 2 mmol/l MgCl2, and 50 mmol/l KCl to remove any traces of contaminating genomic DNA. RNA (2.5 μg) was then subjected to reverse transcription (RT reagents; Promega; Madison, Wis.). RT-PCR was undertaken in a volume of 50 μl of buffer containing 50 mmol/l KCl, 10 mmol/l Tris-HCl, 3.5 mmol/l MgCl2, 200 μmol/l each dNTPs, and 0.4 μmol/l each of sense and antisense primers to rat or human insulin (depending on the specific cell from which the RNA was extracted). Amplification was performed for 30 cycles at the denaturing temperature of 94° C. for 1 min, annealing temperature of 60° C. for 45 sec, and an extension temperature of 72° C. for 1 min. […] These included more irregular and variable cell shapes, with a cytoplasm less homogenous and “rougher” in appearance than control culture.
Treatment with GLP-1 induces the differentiation of ductal epithelial cells into insulin-producing cells. FIG. 2 illustrates a series of cell cultures grown with or without GLP-1 (10 nM) for 72 h. […] Preabsorption of the antibody with an excess of human recombinant insulin prevented the staining of insulin-positive GLP-1 treated cells (data not shown). While treatment with GLP-1 turned the majority of ARIP cells into […] For β-actin, the annealing temperature was raised to 64° C. for 1 min and gene-specific primers were used. For GLP-1-receptor (GLP-R) the annealing temperature used was 55° C. All other experimental conditions to amplify GLUT2, glucokinase, and GLP-R mRNAs were identical to those described for the amplification of insulin mRNA. RT and PCR conditions for human transcripts were identical to those described for rat mRNAs.
Southern blotting with species-specific full length cDNA probes for insulin, GLUT-2, glucokinase, GLP-1 receptor and β-actin was performed as previously described. Y. Wang, R. Perfetti, N. H. Greig, H. W. Holloway, K. A. DeOre, C. Montrose-Rafizadeh, D. Elahi, J. M. Egan, “Glucagon-like peptide-1 can reverse the age-related decline in glucose tolerance in rats.” J Clin Invest 99:2883-2889, 1997.

ARIP cells = test: Flow cytometric (FACS) analysis for insulin, ARIP cells; format: cell-based, rat; conditions: GLP-1 10 nM, 72 hours
Protocol: For fluorescence-activated cells sorting (FACS) analysis, cells were cultured in the presence of GLP-1 (10 nM), or vehicle, for 72 h, then washed with cold PBS (pH 7.4; three times) and incubated overnight, on ice, in PBS with 2% paraformaldehyde. After centrifugation, the cell pellet was resuspended in 400 μl of cold 0.1% Triton diluted in FACS buffer (PBS with 2% FCS). After several centrifugation and washes, the cells were resuspended in the assay buffer with of 10 μl of fluorescent-conjugated insulin antibody (Cat N. FM205, FITC: Chromaprobe, Inc; Mountain View, Calif.), in the presence of 10 μl of blocking antibody (anti-mouse IgG; Organon Teknika-Cappel, West Chester, Pa.). Control samples were treated with PBS, without the primary antibody, and then incubated with an […] FITC-conjugated control antibody (murine IgG; Chromaprobe Inc., Mountain View, Calif.). Flow cytometric analysis was performed with a FACScan[R] cytometer, using the LYSYS II program, and by fluorescence microscopy, as is well known in the art. See, e.g., E. Elstner, M. Linker-Israeli, J. Le, T. Umiel, P. Michl, J. W. Said, L. Binderup, J. C. […]

PANC-1/IDX-1 cells [2] = test: Immunocytochemistry and immunofluorescence for insulin, PANC-1/IDX-1 cells; format: cell-based, human; conditions: GLP-1 10 nM, 72 h
Protocol: as §1
Cells were cultured on monocoated chamber slides (Nalge Nunc International; Naperville, Ill.) in the presence of GLP-1 (10 nM), or vehicle, for 72 h.
For the detection of insulin, cells were washed and fixed with 3% paraformaldehyde for 4 h, at room temperature in PBS, solubilized with 0.1% (vol/vol) Triton X-100 in PBS for 5 min. Cells were then incubated sequentially with an anti-insulin antibody and a secondary antibody, as described by the manufacturer (Biomeda Corp.; Foster City, Calif.). The cells were examined using a Ziess Axiophoto microscope (New York, N.Y.).
Insulin immunofluoresce, for co-immunostaining with IDX-1, was carried on using the […], while the secondary antibody was a goat anti-guinea pig IgG (Molecular Probes, Inc.). The cells were examined using a using a fluorescent microscope (E-800; Nikon, Tokyo).

PANC-1/IDX-1 cells [3] = test: Morphological changes (hematoxylin and eosin), PANC-1/IDX-1 cells; format: cell-based, human; conditions: GLP-1 10 nM for 72 h
Protocol: as §1
Hematoxylin and eosin staining was employed, in some experiments, to show the morphological changes observed under the experimental conditions described below.

Question: What does the source list for glucagon-like peptide-1 [GLP-1]?
Answer: time of GLUT2 mRNA expression (PANC-1/IDX-1 cells [1]; GLP-1 10 nM): 24 h; time of earliest detection of insulin mRNA (PANC-1/IDX-1 cells [1]; GLP-1 10 nM): 48 h; time of glucokinase mRNA expression (PANC-1/IDX-1 cells [1]; GLP-1 10 nM): 72 h; GLP-1 dose at peak of insulin mRNA levels (PANC-1/IDX-1 cells [1]; data not shown): 10 nM; GLP-1 dose at plateau of insulin mRNA levels (PANC-1/IDX-1 cells [1]; data not shown): 20 nM; lowest dose of GLP-1 required to detect insulin mRNA (PANC-1/IDX-1 cells [1]; data not shown): 1 nM; cells reacting with anti-human insulin antibody (ARIP cells): 72.6%; insulin immunostaining (PANC-1/IDX-1 cells [2]): capable of synthesizing insulin; IDX-1 containing cells also positive for intracellular insulin (PANC-1/IDX-1 cells [2]; double immunofluorescence): Approximately 85%; weakly IDX-1 positive cells not stained by anti-insulin antibody (PANC-1/IDX-1 cells [2]; double immunofluorescence): ~20%; morphological change: cell aggregation (PANC-1/IDX-1 cells [3]): further promoted the tendency of forming few-cells aggregates; morphological change: cell size (PANC-1/IDX-1 cells [3]): increase in the size of individual cells
